# Laboratory results as given in ChEMBL document CHEMBL3132769, “Fragment growing to retain or alter the selectivity of anchored kinase hinge-binding fragments” (Medchemcomm, 2014).
# Columns and labels:
# [1] = target: Protein kinase C eta type (Homo sapiens) (UniProt P24723); assay: Inhibition of human truncated PKC eta expressed in baculovirus assessed as substrate phosphorylation using fluorescence-labelled peptides as substrate at 70 uM after 90 mins by microfluidic peptide phosphorylation assay
# Sequence of Protein kinase C eta type (Homo sapiens) (P24723 whole entry, the tested form may be a part): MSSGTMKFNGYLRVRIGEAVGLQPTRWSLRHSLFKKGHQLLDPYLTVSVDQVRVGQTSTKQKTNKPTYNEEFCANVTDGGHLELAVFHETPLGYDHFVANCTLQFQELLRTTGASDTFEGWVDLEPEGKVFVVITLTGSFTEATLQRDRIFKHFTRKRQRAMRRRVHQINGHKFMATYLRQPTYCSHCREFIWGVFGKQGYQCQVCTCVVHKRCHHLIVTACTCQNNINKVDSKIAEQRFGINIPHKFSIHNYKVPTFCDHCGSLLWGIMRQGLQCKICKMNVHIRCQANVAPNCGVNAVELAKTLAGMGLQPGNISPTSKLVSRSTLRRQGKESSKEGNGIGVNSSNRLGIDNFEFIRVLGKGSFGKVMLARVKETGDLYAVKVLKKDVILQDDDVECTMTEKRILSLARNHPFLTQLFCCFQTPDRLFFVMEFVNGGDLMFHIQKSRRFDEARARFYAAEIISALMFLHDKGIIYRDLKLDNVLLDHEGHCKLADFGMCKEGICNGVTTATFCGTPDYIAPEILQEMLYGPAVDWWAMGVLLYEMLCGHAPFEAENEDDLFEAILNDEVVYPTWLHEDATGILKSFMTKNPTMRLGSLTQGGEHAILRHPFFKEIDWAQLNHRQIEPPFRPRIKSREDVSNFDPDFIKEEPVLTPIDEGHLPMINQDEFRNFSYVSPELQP
# [2] = target: T1, Serine/threonine-protein kinase D2 (Homo sapiens) (UniProt Q9BZL6); assay: Inhibition of human full length PKD2 expressed in baculovirus assessed as substrate phosphorylation using fluorescence-labelled peptides as substrate at 420 uM after 90 mins by microfluidic peptide phosphorylation assay
# T1 sequence (whole entry): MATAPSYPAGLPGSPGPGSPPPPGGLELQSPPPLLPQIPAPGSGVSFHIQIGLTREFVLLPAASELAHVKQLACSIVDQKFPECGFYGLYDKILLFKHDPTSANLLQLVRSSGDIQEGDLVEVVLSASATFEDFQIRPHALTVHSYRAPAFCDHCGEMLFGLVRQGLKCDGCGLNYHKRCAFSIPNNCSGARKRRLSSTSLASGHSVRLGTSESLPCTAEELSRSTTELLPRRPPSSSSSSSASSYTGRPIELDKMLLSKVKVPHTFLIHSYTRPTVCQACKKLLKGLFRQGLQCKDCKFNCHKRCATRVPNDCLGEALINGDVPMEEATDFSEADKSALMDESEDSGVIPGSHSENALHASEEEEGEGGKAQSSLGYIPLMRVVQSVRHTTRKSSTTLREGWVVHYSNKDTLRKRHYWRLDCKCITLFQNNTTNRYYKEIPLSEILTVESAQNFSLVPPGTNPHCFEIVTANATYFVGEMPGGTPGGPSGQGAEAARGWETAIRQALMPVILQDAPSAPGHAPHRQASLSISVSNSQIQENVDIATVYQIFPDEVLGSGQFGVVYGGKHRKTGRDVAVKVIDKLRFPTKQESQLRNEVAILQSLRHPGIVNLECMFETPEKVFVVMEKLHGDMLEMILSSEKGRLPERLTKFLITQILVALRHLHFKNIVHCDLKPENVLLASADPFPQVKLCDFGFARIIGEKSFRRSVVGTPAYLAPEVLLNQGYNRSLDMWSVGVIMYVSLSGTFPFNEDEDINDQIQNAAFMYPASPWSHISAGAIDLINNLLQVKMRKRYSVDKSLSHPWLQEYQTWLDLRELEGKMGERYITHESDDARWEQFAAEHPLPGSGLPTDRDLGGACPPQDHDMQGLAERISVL
# [3] = target: T2, Serine/threonine-protein kinase BRSK2 (Homo sapiens) (UniProt Q8IWQ3); assay: Inhibition of human truncated BRSK2 expressed in baculovirus assessed as substrate phosphorylation using fluorescence-labelled peptides as substrate at 420 uM after 90 mins by microfluidic peptide phosphorylation assay
# T2 sequence (whole entry): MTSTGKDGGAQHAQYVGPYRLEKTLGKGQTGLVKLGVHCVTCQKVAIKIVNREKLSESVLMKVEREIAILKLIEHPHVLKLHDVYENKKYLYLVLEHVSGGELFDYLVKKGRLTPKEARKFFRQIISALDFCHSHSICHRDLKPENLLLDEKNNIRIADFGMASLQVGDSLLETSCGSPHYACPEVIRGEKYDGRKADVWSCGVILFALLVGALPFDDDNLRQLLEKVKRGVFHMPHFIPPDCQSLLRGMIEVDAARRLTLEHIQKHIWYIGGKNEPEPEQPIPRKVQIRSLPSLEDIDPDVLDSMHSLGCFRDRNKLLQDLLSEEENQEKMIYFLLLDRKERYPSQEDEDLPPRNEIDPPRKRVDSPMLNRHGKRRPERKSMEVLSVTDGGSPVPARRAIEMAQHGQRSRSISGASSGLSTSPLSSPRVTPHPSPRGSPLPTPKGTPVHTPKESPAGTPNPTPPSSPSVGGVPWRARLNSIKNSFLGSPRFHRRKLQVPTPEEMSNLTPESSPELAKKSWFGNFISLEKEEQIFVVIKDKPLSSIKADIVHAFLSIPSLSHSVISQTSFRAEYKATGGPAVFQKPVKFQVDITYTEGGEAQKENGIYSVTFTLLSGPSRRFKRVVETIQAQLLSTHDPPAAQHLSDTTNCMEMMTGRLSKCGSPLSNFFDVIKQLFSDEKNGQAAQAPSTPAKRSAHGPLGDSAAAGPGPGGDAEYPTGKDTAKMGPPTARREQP
# [4] = system: Tyrosine-protein kinase ABL1 (Homo sapiens), P00519 [Q252H]; assay: Inhibition of human truncated ABL Q252H mutant expressed in baculovirus assessed as substrate phosphorylation using fluorescence-labelled peptides as substrate at 95 uM after 90 mins by microfluidic peptide phosphorylation assay
# [5] = target: T3, Aurora kinase C (Homo sapiens) (UniProt Q9UQB9); assay: Inhibition of human full length AurC expressed in baculovirus assessed as substrate phosphorylation using fluorescence-labelled peptides as substrate at 9 uM after 90 mins by microfluidic peptide phosphorylation assay
# T3 sequence (whole entry): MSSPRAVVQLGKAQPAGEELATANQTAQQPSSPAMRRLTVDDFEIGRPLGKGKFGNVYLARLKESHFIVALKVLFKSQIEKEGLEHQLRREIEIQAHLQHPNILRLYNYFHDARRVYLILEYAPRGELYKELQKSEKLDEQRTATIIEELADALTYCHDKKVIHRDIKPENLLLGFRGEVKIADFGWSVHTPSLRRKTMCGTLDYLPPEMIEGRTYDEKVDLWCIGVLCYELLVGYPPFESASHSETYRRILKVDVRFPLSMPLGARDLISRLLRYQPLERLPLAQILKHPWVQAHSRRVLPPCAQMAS
# [6] = target: Receptor-type tyrosine-protein kinase FLT3 (Homo sapiens) (UniProt P36888); assay: Inhibition of human FLT3 catalytic domain expressed in baculovirus assessed as substrate phosphorylation using fluorescence-labelled peptides as substrate at 9 uM after 90 mins by microfluidic peptide phosphorylation assay
# Sequence of Receptor-type tyrosine-protein kinase FLT3 (Homo sapiens) (P36888 whole entry, the tested form may be a part): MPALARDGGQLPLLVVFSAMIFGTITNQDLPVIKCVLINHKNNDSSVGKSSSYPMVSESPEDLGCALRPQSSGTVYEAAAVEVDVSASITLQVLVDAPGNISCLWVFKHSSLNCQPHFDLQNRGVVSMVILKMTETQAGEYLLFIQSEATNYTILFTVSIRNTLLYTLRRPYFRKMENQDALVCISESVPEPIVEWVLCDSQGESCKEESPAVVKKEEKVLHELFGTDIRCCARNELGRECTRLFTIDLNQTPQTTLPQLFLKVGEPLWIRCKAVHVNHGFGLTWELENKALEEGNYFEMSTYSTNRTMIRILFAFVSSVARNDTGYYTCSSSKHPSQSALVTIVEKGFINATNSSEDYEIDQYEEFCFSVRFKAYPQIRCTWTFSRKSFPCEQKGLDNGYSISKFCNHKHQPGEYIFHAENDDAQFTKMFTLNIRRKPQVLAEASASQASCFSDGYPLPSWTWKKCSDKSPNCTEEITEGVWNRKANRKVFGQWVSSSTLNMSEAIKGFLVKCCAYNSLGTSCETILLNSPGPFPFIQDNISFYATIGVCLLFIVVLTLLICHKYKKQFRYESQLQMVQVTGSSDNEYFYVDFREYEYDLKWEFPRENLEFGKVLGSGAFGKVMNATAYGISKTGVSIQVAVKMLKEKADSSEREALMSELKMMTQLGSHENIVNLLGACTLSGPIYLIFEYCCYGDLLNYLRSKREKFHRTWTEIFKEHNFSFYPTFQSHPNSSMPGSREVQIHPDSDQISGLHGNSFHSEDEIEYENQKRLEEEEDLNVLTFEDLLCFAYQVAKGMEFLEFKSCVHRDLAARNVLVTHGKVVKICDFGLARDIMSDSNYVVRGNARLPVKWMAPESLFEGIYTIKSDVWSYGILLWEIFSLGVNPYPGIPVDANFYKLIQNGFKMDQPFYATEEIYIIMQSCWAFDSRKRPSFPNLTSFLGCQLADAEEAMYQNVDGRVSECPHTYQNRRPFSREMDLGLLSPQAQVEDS
# Homo sapiens = species: Homo sapiens; assay: Inhibition of human P70S6K catalytic domain expressed in baculovirus assessed as substrate phosphorylation using fluorescence-labelled peptides as substrate at 2 uM after 90 mins by microfluidic peptide phosphorylation assay
# [7] = target: Tyrosine-protein kinase ABL2 (Homo sapiens) (UniProt P42684); assay: Inhibition of human truncated Arg expressed in baculovirus assessed as substrate phosphorylation using fluorescence-labelled peptides as substrate at 8 uM after 90 mins by microfluidic peptide phosphorylation assay
# Sequence of Tyrosine-protein kinase ABL2 (Homo sapiens) (P42684 whole entry, the tested form may be a part): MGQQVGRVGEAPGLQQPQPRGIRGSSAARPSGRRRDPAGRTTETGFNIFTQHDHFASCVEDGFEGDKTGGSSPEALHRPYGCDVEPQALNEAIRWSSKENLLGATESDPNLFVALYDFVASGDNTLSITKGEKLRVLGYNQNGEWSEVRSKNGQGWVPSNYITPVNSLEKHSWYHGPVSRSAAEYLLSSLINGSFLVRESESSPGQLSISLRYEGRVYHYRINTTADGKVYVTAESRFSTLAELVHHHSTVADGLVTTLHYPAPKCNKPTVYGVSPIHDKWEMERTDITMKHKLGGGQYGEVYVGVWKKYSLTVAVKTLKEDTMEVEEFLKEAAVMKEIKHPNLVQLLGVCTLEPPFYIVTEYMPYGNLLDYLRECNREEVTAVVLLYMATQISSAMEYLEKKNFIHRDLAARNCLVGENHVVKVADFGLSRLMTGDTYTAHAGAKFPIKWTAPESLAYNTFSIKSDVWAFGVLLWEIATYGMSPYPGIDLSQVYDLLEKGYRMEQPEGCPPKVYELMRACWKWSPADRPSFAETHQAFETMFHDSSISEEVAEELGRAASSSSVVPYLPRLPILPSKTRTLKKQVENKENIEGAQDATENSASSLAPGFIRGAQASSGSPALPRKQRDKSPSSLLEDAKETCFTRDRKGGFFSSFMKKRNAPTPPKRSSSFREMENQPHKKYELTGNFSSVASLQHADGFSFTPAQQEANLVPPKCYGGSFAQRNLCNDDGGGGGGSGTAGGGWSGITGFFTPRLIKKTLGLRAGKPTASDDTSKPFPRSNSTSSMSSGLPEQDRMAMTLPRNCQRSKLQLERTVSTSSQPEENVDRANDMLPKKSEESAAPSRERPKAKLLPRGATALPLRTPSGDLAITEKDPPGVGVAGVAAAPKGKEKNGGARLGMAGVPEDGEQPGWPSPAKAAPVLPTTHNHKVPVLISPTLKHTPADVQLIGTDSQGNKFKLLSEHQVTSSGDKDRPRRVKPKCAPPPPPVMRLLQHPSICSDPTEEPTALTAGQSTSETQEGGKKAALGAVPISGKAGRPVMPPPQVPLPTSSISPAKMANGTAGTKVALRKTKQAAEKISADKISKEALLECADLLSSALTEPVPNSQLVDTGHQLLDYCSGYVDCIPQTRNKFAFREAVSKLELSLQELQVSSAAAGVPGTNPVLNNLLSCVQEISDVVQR
structure (smiles),measurement,setting,value
CNCc1ccc(-c2ncnc3[nH]cnc23)cc1,inhibition,[1],78.5%
c1nc(N2CCOCC2)c2nc[nH]c2n1,inhibition,[2],70%
same,inhibition,[3],60.5%
NCCc1ccc(-c2ncnc3[nH]cnc23)cc1,inhibition,[4],67.5%
NCC1CN(c2ncnc3[nH]c4cnccc4c23)CCO1 (stereo not drawn),inhibition,[5],11.5%
same,inhibition,[6],89.5%
NC1CCN(c2ncnc3[nH]ccc23)CC1,inhibition,Homo sapiens,3.5%
NCC1CCN(c2ncnc3[nH]ccc23)CC1,inhibition,[7],3.5%
